Experiments:
[1] = target: T1, α1G T-type calcium channel (Homo sapiens, UniProt O43497); assay: Assay for % inhibiting activity against T-type calcium channel using FDSS6000; type: cell-based; conditions: HEK293 cells expressing α1G; for inhibition at 10 µM: HEK293, 10 μM
T1 construct: host or cells: HEK293
Description: In the present invention, in order to search an efficient inhibitor against T-type calcium channel, a primary assay for T-type calcium channel inhibiting activity was conducted by a high-efficient assay using FDSS6000, wherein mammal HEK293 cell lines (originated from human kidney carcinoma cells) which specifically expresses α1G of T-type calcium channel was used for primary assay. Through the primary assay, compounds which show meaningful inhibition effects were selected. The selected compounds were used in a second assay for T-type calcium channel inhibiting activity using electrophysiological whole cell patch clamp method, wherein mammal HEK293 cell lines (originated from human kidney carcinoma cells) which specifically expresses α1G of T-type calcium channel was used for the second assay.
At 12-24 hours before being used for this assay, cells of HEK293 cell line (α1G cell line: KCTC 10519BP, Korean Collection for Type Cultures), which stably express α1G T-type calcium channel and Kir2.1, were sub-cultured in a poly-L-lysine treated 96-well plate with the density of 4×10^4 per a well using a 96-well cell dispenser (Titertek). On the of assay, the 96-well plate to which the cells were attached were washed three times with HEPES buffer solution (150 mM of NaCl, 5 mM of KCl, 1 mM of MgCl2, 2 mM of CaCl2, 10 mM of HEPES, 10 mM of glucose; pH 7.4) using a 96-well plate automatic washing device (Bio Tek), then reacted with HEPES buffer solution containing 5 μM fluo-3/AM and 0.001% Pluronic F-127 under room temperature for 1 hour, to label with fluorescent dye, and then further washed two times with HEPES buffer solution.
Thereafter, at 10 minutes before the measurement using device FDSS6000, a washing with HEPES buffer solution containing 10 mM CaCl2 was conducted once more, and the final volume was adjusted to 81 μl. Besides the above 96-well plate containing the cells, additional two drug 96-well plates were provided, wherein the 96-well plates contain inhibiting drug and KCl (final concentration: 75 mM) for activating T-type calcium channel, respectively. Since most of cell-based HTS devices are equipped with a liquid application system for injection of drug, but have no liquid sucking system, the inhibiting drug to be tested and KCl were respectively provided at the five-times higher concentration in 10 mM CaCl2 HEPES buffer solution at the amount of 27 μl, diluted five-times at the final cell plate volume of 135 μl, and then used in this test. The concrete method of measurement using FDSS6000 was as follows: After recording the reference value of 20 seconds, the change of intracellular Ca^2+ concentration which induced by treatment of the inhibiting drug to be tested for 75 seconds followed by administration of KCl was measured, wherein the percentage (%) inhibition effect of the test drug, through estimating the area of ratio value of 340/380 in the control without treatment of the test drug as 100%. As a reference drug, mibefradil was used.
For accurate calcium-imagination, the light source of 4 xenon lamps in FDSS6000 were radiated to make the cells exposed selectively to the excitation wavelength (340 nm and 380 nm) by computer-controlled filter wheel. Data was obtained at interval of each 1.23 second. The emitter fluorescence light inflowed through long-pass filter was obtained as an average 340/380 ratio value for each well in the 96-wells by using CCD camera and digital fluorescence analyzer in FDSS6000. All image data and analyses were obtained by using FDSS6000-exclusive program provide from Hamamatsu Photonics.

[2] = Table 3 (Chemical Formula 2 series)
[3] = Table 4 (Chemical Formula 3 series)

T1 sequence (O43497 whole entry): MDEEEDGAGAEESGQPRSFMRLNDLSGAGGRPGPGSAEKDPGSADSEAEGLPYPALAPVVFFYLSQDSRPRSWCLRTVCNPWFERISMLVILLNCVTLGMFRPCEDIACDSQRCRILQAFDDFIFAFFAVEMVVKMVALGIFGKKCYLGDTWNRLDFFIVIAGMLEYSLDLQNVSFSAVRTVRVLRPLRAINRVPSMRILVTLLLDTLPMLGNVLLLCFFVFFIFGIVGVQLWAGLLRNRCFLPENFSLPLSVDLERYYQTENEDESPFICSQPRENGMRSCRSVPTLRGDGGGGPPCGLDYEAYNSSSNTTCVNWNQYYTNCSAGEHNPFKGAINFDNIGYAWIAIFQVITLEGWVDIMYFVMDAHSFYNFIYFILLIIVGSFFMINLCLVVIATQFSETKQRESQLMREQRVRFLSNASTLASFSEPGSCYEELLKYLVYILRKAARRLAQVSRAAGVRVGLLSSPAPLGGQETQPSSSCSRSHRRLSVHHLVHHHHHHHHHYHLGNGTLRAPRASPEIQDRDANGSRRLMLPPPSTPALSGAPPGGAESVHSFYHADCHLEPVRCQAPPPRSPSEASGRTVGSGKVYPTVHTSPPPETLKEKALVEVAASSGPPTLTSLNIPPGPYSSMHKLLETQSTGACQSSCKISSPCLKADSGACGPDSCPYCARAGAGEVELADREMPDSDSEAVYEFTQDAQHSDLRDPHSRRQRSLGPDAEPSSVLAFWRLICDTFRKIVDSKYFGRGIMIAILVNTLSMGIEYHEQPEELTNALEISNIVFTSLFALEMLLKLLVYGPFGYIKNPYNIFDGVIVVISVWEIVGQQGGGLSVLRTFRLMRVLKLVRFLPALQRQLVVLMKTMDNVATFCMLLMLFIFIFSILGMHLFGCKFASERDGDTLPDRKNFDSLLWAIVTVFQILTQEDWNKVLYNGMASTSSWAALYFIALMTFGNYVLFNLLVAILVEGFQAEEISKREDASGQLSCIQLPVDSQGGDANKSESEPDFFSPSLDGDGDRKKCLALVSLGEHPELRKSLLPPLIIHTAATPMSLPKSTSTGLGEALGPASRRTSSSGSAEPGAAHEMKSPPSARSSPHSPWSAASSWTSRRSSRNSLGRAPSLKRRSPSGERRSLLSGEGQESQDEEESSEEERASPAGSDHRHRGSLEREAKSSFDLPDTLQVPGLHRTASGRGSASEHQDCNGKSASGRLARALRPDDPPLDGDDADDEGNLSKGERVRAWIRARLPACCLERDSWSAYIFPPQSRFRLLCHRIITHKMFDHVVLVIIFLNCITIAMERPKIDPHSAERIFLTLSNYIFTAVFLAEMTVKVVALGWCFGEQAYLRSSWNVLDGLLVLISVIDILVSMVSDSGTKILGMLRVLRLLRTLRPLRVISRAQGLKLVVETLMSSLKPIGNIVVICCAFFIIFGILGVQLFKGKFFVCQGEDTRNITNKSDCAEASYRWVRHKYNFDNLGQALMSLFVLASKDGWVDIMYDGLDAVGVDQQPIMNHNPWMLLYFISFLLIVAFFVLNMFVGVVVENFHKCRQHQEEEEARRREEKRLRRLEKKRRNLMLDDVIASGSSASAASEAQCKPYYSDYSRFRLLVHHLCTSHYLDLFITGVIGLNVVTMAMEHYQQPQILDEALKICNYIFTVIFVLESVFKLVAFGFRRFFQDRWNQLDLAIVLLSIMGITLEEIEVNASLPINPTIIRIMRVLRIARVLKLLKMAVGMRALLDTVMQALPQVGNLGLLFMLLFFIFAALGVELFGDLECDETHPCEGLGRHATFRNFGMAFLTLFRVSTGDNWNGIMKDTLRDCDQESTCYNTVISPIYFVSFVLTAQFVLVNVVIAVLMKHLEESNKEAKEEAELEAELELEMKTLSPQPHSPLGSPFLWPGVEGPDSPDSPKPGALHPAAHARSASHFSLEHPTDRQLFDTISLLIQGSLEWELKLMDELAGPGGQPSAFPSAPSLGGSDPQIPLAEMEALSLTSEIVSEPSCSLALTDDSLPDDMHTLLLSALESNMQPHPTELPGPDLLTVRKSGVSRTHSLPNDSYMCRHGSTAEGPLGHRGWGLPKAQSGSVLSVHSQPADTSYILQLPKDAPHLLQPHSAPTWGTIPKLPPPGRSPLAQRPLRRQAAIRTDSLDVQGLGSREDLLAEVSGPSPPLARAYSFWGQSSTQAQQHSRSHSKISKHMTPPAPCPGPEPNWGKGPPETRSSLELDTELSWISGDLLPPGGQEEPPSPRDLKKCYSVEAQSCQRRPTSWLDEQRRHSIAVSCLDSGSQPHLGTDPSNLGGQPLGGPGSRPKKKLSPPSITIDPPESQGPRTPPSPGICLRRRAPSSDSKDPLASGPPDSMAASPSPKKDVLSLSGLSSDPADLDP

Structure (SMILES)	melting point	inhibition at 10 µM [1, 2]	% Inhibition [α1G, 10 μM) using FDSS6000 ([1]; 10 μM, Table 3 (Chemical Formula 2 series), hydrochloride)	inhibition at 10 µM [1, 3]
Cl.NC(N)=Nc1nc(CC(=O)Nc2ccc(Cl)cc2F)cs1 [KHG23173, N-(4-chloro-2-fluorophenyl)-2-(2-(diaminomethyleneamino)thiazole-4-yl)acetamide hydrochloride]	237.2 to 239.8 °C	28.1%	–	–
Cc1ccc(NC(=O)Cc2csc(N=C(N)N)n2)c(Cl)c1.Cl [KHG23174, N-(2-chloro-4-methylphenyl)-2-(2-(diaminomethyleneamino)thiazole-4-yl)acetamide hydrochloride]	218.6 to 220 °C	18.8%	–	–
Cc1ccc(NC(=O)Cc2csc(N=C(N)N)n2)cc1.Cl [KHG23175, 2-(2-(diaminomethyleneamino)thiazole-4-yl)-N-p-tolylacetamide hydrochloride]	236.2 to 238.3 °C	23.8%	–	–
Cl.N#Cc1ccc(NC(=O)Cc2csc(N=C(N)N)n2)cc1 [KHG23176, N-(4-cyanophenyl)-2-(2-(diaminomethyleneamino)thiazole-4-yl)acetamide hydrochloride]	218.4 to 219.4 °C	20.5%	–	–
Cl.NC(N)=Nc1nc(CC(=O)Nc2ccccc2)cs1 [KHG23177, 2-(2-(diaminomethyleneamino)thiazole-4-yl)-N-phenylacetamide hydrochloride]	197.8 to 198.1 °C	23.3%	–	–
Cl.NC(N)=Nc1nc(CC(=O)Nc2ccc(Br)cc2)cs1 [KHG23178, N-(4-bromophenyl)-2-(2-(diaminomethyleneamino)thiazole-4-yl)acetamide hydrochloride]	246.4 to 247 °C	34.5%	–	–
COc1ccc(NC(=O)Cc2csc(N=C(N)N)n2)cc1F.Cl [KHG23179, 2-(2-(diaminomethyleneamino)thiazole-4-yl)-N-(3-fluoro-4-methoxyphenyl)acetamide hydrochloride]	225.8 to 228.4 °C	–	30.76%	–
Cl.NC(N)=Nc1nc(CC(=O)Nc2ccc(Cl)cc2)cs1 [KHG23184, N-(4-chlorophenyl)-2-(2-(diaminomethyleneamino)thiazole-4-yl)acetamide hydrochloride]	244.3 to 245 °C	24.9%	–	–
Cl.NC(N)=Nc1nc(CC(=O)Nc2cc(Cl)cc(Cl)c2)cs1 [KHG23185, 2-(2-(diaminomethyleneamino)thiazole-4-yl)-N-(3,5-dichlorophenyl)acetamide hydrochloride]	248.5 to 249.2 °C	12.3%	–	–
CCc1ccc(NC(=O)Cc2csc(N=C(N)N)n2)cc1.Cl [KHG23186, 2-(2-(diaminomethyleneamino)thiazole-4-yl)-N-(4-ethylphenyl)acetamide hydrochloride]	228 to 229.1 °C	29.8%	–	–
Cc1ccc(CNC(=O)Cc2csc(N=C(N)N)n2)cc1.Cl [KHG23187, 2-(2-(diaminomethyleneamino)thiazole-4-yl)-N-(4-methylbenzyl)acetamide hydrochloride]	187.9 to 188.6 °C	21.4%	–	–
Cc1ccc(CCNC(=O)Cc2csc(N=C(N)N)n2)cc1.Cl [KHG23188, 2-(2-(diaminomethyleneamino)thiazole-4-yl)-N-(4-methylphenethyl)acetamide hydrochloride]	169.3 to 170.1 °C	19.3%	–	–
Cl.NC(N)=Nc1nc(CC(=O)NCc2ccc(F)c(F)c2)cs1 [KHG23189, 2-(2-(diaminomethyleneamino)thiazole-4-yl)-N-(3,4-difluorobenzyl)acetamide hydrochloride]	206.9 to 207.6 °C	19.3%	–	–
Cc1ccc(NC(=O)Cc2csc(N=C(N)N)n2)c(Br)c1.Cl [KHG23191, N-(2-bromo-4-methylphenyl)-2-(2-(diaminomethyleneamino)thiazole-4-yl)acetamide hydrochloride]	219.7 to 220.5 °C	18%	–	–
CCOc1ccc(NC(=O)Cc2csc(N=C(N)N)n2)cc1.Cl [KHG23192, N-(4-ethoxyphenyl)-2-(2-(diaminomethyleneamino)thiazole-4-yl)acetamide hydrochloride]	242.1 to 242.6 °C	16.8%	–	–
Cl.NC(N)=Nc1nc(-c2ccc(Cl)cc2)cs1 [KHG24024, 2-(4-(4-chlorophenyl)thiazole-2-yl)guanidine hydrochloride]	264.9 °C	–	–	13%

Structure (SMILES)	melting point	inhibition at 10 µM [1, 2]	% Inhibition [α1G, 10 μM) using FDSS6000 ([1]; 10 μM, Table 3 (Chemical Formula 2 series), hydrochloride)	inhibition at 10 µM [1, 3]
Cl.NC(N)=Nc1nc(-c2ccc(F)cc2)cs1 [KHG24025, 2-(4-(4-fluorophenyl)thiazole-2-yl)guanidine hydrochloride]	223.3 °C	–	–	19.9%
Cl.NC(N)=Nc1nc(-c2ccc(F)cc2F)cs1 [KHG24026, 2-(4-(2,4-difluorophenyl)thiazole-2-yl)guanidine hydrochloride]	248.9 °C	–	–	19.8%
Cl.NC(N)=Nc1nc(-c2ccc3c(c2)OCC(=O)N3)cs1 [KHG24037, 2-(4-(3-oxo-3,4-dihydro-2H-benzo[b][1,4]oxazine-7-yl)thiazole-2-yl)guanidine hydrochloride]	233.3 °C	–	–	21.2%
Cl.NC(N)=Nc1nc(-c2ccc(-c3ccccc3)cc2)cs1 [KHG24038, 2-(4-(biphenyl-4-yl)thiazole-2-yl)guanidine hydrochloride]	300.3 °C	–	–	14.2%
Br.NC(N)=Nc1nc(-c2ccccc2Cl)cs1 [KHG24373, 2-(4-(2-chlorophenyl)thiazole-2-yl)guanidine hydrobromide]	211.9 °C	–	–	21.7%
Br.COc1ccccc1-c1csc(N=C(N)N)n1 [KHG24374, 2-(4-(2-methoxyphenyl)thiazole-2-yl)guanidine hydrobromide]	245.4 °C	–	–	20.7%
Br.COc1ccc(-c2csc(N=C(N)N)n2)c(OC)c1 [KHG24376, 2-(4-(2,4-dimethoxyphenyl)thiazole-2-yl)guanidine hydrobromide]	213 °C	–	–	16.1%
Br.COc1ccc(-c2csc(N=C(N)N)n2)c(F)c1 [KHG24377, 2-(4-(2-fluoro-4-methoxyphenyl)thiazole-2-yl)guanidine hydrobromide]	202.6 °C	–	–	20.2%
Br.NC(N)=Nc1nc(-c2ccc(Cl)cc2Cl)cs1 [KHG24379, 2-(4-(2,4-dichlorophenyl)thiazole-2-yl)guanidine hydrobromide]	173 °C	–	–	16.8%
Br.NC(N)=Nc1nc(-c2ccccc2)cs1 [KHG24380, 2-(4-phenylthiazole-2-yl)guanidine hydrobromide]	209.5 °C	–	–	19.6%
Br.NC(N)=Nc1nc(-c2ccc(Br)cc2)cs1 [KHG24381, 2-(4-(4-bromophenyl)thiazole-2-yl)guanidine hydrobromide]	278.5 °C	–	–	20.8%
Br.Cc1cccc(-c2csc(N=C(N)N)n2)c1 [KHG24382, 2-(4-m-tolylthiazole-2-yl)guanidine hydrobromide]	232.4 °C	–	–	22.3%
Br.NC(N)=Nc1nc(-c2cccc(F)c2)cs1 [KHG24383, 2-(4-(3-fluorophenyl)thiazole-2-yl)guanidine hydrobromide]	242.1 °C	–	–	21.6%
Br.NC(N)=Nc1nc(-c2ccccc2F)cs1 [KHG24384, 2-(4-(2-fluorophenyl)thiazole-2-yl)guanidine hydrobromide]	229.6 °C	–	–	20.3%
Br.NC(N)=Nc1nc(-c2cccc(C(F)(F)F)c2)cs1 [KHG24385, 2-(4-(3-(trifluoromethyl)phenyl)thiazole-2-yl)guanidine hydrobromide]	224.8 °C	–	–	15.8%

From patent US8143296B2, “Thiazole-based compound and inhibitor of T-type calcium channel containing the same” (Korea Institute of Science and Technology, priority 2006, dated 2012)
